# Legend:
# Assay in all cases: cell viability (% survival relative to DMSO control); higher = less cytotoxic
# Conditions in all cases: 72 h
# [1] = test system: myeloid leukemia patient primary cells Pat.4
# Procedure, shortened: (§1)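 Thawed, Ficoll-purified mononuclear cells from AML or CML patients in RPMI 1640 with 10% FBS were seeded at 10,000 cells/well on 384-well plates pre-printed with 70 compounds at five tenfold concentrations, 1–10,000 nM, in duplicate, for 72 h. Viability was read by CellTiter-Glo and normalised to DMSO and 10 μM proteasome-inhibitor wells. Where given, area under the curve came from four-parameter log-logistic fits (drc, PharmacoGx R packages).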
# [2] = test system: myeloid leukemia patient primary cells Pat.5
# Procedure, shortened: as §1
# [3] = test system: myeloid leukemia patient primary cells Pat.10
# Procedure, shortened: as §1
# [4] = test system: myeloid leukemia patient primary cells Pat.7
# Procedure, shortened: as §1
Compound,cell viability ([1]; 1 nM) [%],cell viability ([1]; 10 nM) [%],cell viability ([1]; 100 nM) [%],cell viability ([1]; 1000 nM) [%],cell viability ([1]; 10000 nM) [%],cell viability ([2]; 1 nM) [%],cell viability ([2]; 10 nM) [%],cell viability ([2]; 100 nM) [%],cell viability ([2]; 1000 nM) [%],cell viability ([2]; 10000 nM) [%],cell viability ([3]; 1 nM) [%],cell viability ([3]; 10 nM) [%],cell viability ([3]; 100 nM) [%],cell viability ([3]; 1000 nM) [%],cell viability ([3]; 10000 nM) [%],cell viability ([4]; 1 nM) [%],cell viability ([4]; 10 nM) [%],cell viability ([4]; 100 nM) [%],cell viability ([4]; 1000 nM) [%],cell viability ([4]; 10000 nM) [%]
CCOC(=O)N1c2ccc(C(F)(F)F)cc2[C@@H](N(Cc2cc(C(F)(F)F)cc(C(F)(F)F)c2)C(=O)OC)C[C@H]1CC [Torcetrapib],86.9,86,74.1,97,56.7,56.9,0.265,97.4,27.5,1.18,49.2,62.1,78.5,44.5,38.2,84.5,58.4,> 100,50.5,30
Nc1ccn([C@@H]2O[C@H](CO)[C@@H](O)[C@@H]2O)c(=O)n1 [Cytarabine],87.3,88.5,75.5,75.1,5.31,84.9,1.18,24.7,1.18,2.01,89.9,45.1,67,54.1,13.9,> 100,50.7,59.9,12.8,4.95
Cc1noc2c1-c1ccccc1C(c1ccc(Cl)cc1)=N[C@H]2CC(N)=O [CPI-0610],82.5,65.6,58.1,6.43,7.38,81.3,12.4,82.4,7.88,10.1,68.5,91.9,29.6,27.8,39.2,> 100,97.1,84.1,60.5,58
Clc1ccc(COC(Cn2ccnc2)c2ccc(Cl)cc2Cl)cc1 (stereo not given) [Econazole],88,94.6,81.7,88.5,74.9,42.3,90.6,35.2,6.55,1.33,70.3,85.8,73.5,34.5,< 0,72.2,> 100,93,63.4,< 0
COc1c(C)c2c(c(O)c1C/C=C(\C)CCC(=O)O)C(=O)OC2 [Mycophenolic acid],88.4,95,76.3,89.2,32.9,< 0,62.9,26,67.3,> 100,49.6,77.5,79.2,69.8,53.1,52.5,94.8,56.3,> 100,99.3
CC(Cc1ccc(O)c(O)c1)C(C)Cc1ccc(O)c(O)c1 (stereo not given) [Masoprocol],77.7,91.8,> 100,81.8,19.3,57.1,7.88,76.6,21.6,> 100,56.6,47.4,89.9,42.2,> 100,> 100,85.3,89,31.9,2.01
CCN(CC)CCN(Cc1ccc(-c2ccc(C(F)(F)F)cc2)cc1)C(=O)Cn1c(SCc2ccc(F)cc2)nc(=O)c2c1CCC2 [Darapladib],73.2,84.2,67.9,83,0.925,12.5,23.9,5.8,< 0,8.02,66.6,77.8,12.3,93.5,4.94,63.7,74.4,40.1,5.93,< 0
CC12CCC(O)CC1CCC1C2CCC2(C)C(C3=CC(=O)OC3)CCC12O (stereo not given) [Digitoxigenin],89.8,81.8,81.6,5.88,1.81,56.2,38.7,33.1,0.265,4.43,71.9,52.2,> 100,96.8,> 100,94.8,91.8,67.9,> 100,> 100
Sc1ncnc2nc[nH]c12 [6-mercaptopurine],79.1,80,85.9,88.2,92.3,8.91,64.1,35.4,17.2,1.33,59,63.4,70.1,72.4,56.6,> 100,78.2,66.1,93.3,88.8
C[C@]12O[C@H](C[C@]1(O)CO)n1c3ccccc3c3c4c(c5c6ccccc6n2c5c31)CNC4=O [Lestaurtinib],93.5,64.5,8.79,31.2,2.37,22.6,2.27,10,11.2,< 0,64.5,34.5,45.6,73.9,9.05,88.3,62.3,> 100,63.1,< 0
C[C@H]1O[C@@H](O[C@H]2[C@@H](O)C[C@H](O[C@H]3[C@@H](O)C[C@H](O[C@H]4CC[C@@]5(C)[C@H](CC[C@@H]6[C@@H]5C[C@@H](O)[C@]5(C)[C@@H](C7=CC(=O)OC7)CC[C@]65O)C4)O[C@@H]3C)O[C@@H]2C)C[C@H](O)[C@@H]1O [Digoxin],93,76.1,67.4,3.24,4.37,82.9,77.9,9.05,2.24,< 0,91.9,57.7,98.8,91.5,> 100,76.9,86.8,69,89,> 100

# From the supplement of paper PMC8671470
